Key:
[1] = molar heat capacity at constant pressure; conditions: Liquid, calorimeter with the thermal relaxation.
[2] = molar heat capacity at constant pressure; xn = mol fraction of the nth substance listed; conditions: Liquid, calorimeter with the thermal relaxation.

N [ammonia]
[1]
Conditions	molar heat capacity at constant pressure [J/K/mol]
280 K, 1000 kPa	76.81
280 K, 5000 kPa	75.62
300 K, 5000 kPa	76.81
320 K, 5000 kPa	77.83
360 K, 5000 kPa	95.2
360 K, 10000 kPa	92.82
360 K, 15000 kPa	90.26

N [ammonia] + O
molar heat capacity at constant pressure [J/K/mol], [2]
Conditions	x2 = 0	x2 = 0.1566	x2 = 0.1597	x2 = 0.303	x2 = 0.3048	x2 = 0.4956	x2 = 0.7061	x2 = 0.8489
280 K, 100 kPa	–	–	–	–	–	–	68.95	70.04
280 K, 1000 kPa	76.81	76.13	–	71.92	–	76.38	69.48	70.93
280 K, 5000 kPa	75.62	74.58	–	74.17	–	76.03	72.68	72.89
300 K, 100 kPa	–	–	–	–	–	–	–	73.25
300 K, 1000 kPa	–	78.19	–	77.63	–	80.94	75.33	74.86
300 K, 5000 kPa	76.81	76.13	–	77.29	–	78.83	76.58	74.86
320 K, 1000 kPa	–	–	–	–	–	79.71	75.51	73.97
320 K, 5000 kPa	77.83	77.85	–	80.93	–	82.86	79.41	77.18
360 K, 1000 kPa	–	–	–	–	–	–	79.77	76.11
360 K, 5000 kPa	95.2	–	85.94	–	84.92	83.21	81.72	77.54
360 K, 10000 kPa	92.82	–	86.97	–	88.21	85.32	84.55	80.04
360 K, 15000 kPa	90.26	–	86.11	–	86.65	85.84	84.73	79.69

— the NIST ThermoML archive (doi:10.1016/j.jct.2007.06.013)
